Values after ≈ are worked out from the molar mass of the structure shown.
Tests used:
Format in all cases: functional
Staphylococcus aureus [1] = experiment: Antibacterial activity against methicillin resistant Staphylococcus aureus ATCC 33591 after 16 to 20 hrs by CLSI method
Bacillus cereus = experiment: Antibacterial activity against Bacillus cereus
Staphylococcus aureus [2] = experiment: Antibacterial activity against methicillin resistant Staphylococcus aureus BAA-44 after 16 to 20 hrs by CLSI method
Staphylococcus aureus [3] = experiment: Antibacterial activity against methicillin resistant Staphylococcus aureus NR 45898 after 16 to 20 hrs by CLSI method
Staphylococcus aureus [4] = experiment: Antibacterial activity against methicillin resistant Staphylococcus aureus ATCC 43300 after 16 to 20 hrs by CLSI method
Staphylococcus aureus [5] = experiment: Antibacterial activity against methicillin resistant Staphylococcus aureus NR 45913 after 16 to 20 hrs by CLSI method
[6] = tested on: Staphylococcus epidermidis; experiment: Antibacterial activity against methicillin resistant Staphylococcus epidermidis ATCC 51625 after 16 to 20 hrs by CLSI method
[7] = tested on: Staphylococcus epidermidis; experiment: Antibacterial activity against methicillin resistant Staphylococcus epidermidis NR 46386 after 16 to 20 hrs by CLSI method
Staphylococcus aureus [8] = experiment: Antibacterial activity against methicillin resistant Staphylococcus aureus BAA-1685 after 16 to 20 hrs by CLSI method
Staphylococcus aureus [9] = experiment: Antibacterial activity against methicillin resistant Staphylococcus aureus NR 45906 after 16 to 20 hrs by CLSI method
Staphylococcus aureus [10] = experiment: Antibacterial activity against linezolid/methicillin resistant Staphylococcus aureus NR 45926 after 16 to 20 hrs by CLSI method
Staphylococcus aureus [11] = experiment: Antibacterial activity against linezolid/methicillin resistant Staphylococcus aureus NR 45924 after 16 to 20 hrs by CLSI method

C#CCN1C(=O)C(O)=C(c2ccc(C(F)(F)F)cc2)C1CC (racemic)
MIC (Staphylococcus aureus [1]): 32 µg/mL (≈ 103 µM)

O=C1C(O)=C(c2ccc(F)cc2)C2CCCN12 (racemic)
MIC (Staphylococcus aureus [1]): > 128 µg/mL

C=CCC1=C(O)C(=O)N2CCCC12 (stereo not drawn)
MIC (Staphylococcus aureus [1]): > 128 µg/mL

CCC1C(c2ccc(C(F)(F)F)cc2)=C(O)C(=O)N1CC(C)C (racemic)
MIC (Staphylococcus aureus [1]): 16 µg/mL (≈ 48.9 µM)

CCC1C(c2ccc(C(F)(F)F)cc2)=C(O)C(=O)N1Cc1ccncc1 (racemic)
MIC (Staphylococcus aureus [1]): 64 µg/mL (≈ 177 µM)

Cc1ccc(C2=C(O)C(=O)N3CCCCC23)cc1 (racemic)
MIC (Staphylococcus aureus [1]): > 128 µg/mL

O=C1C(O)=C(c2ccccc2[N+](=O)[O-])C2CCCN12 (stereo not drawn)
MIC (Staphylococcus aureus [1]): > 128 µg/mL

O=C1C(O)=C(c2ccc(Cl)cc2)C2CCCN12 (racemic)
MIC (Staphylococcus aureus [1]): > 128 µg/mL

CCC1NC(=O)C(O)=C1c1ccc(C(F)(F)F)cc1 (racemic)
MIC (Staphylococcus aureus [1]): 128 µg/mL (≈ 472 µM)

O=C1C(O)=C(c2ccc(O)cc2)C2CCCN12 (stereo not drawn)
MIC (Bacillus cereus): 50 to 100 µg/mL (≈ 216 to 432 µM)
MIC (Staphylococcus aureus [1]): > 128 µg/mL

O=C1C(O)=C(c2ccc(C(F)(F)F)cc2)C2CCCCN12 (stereo not drawn)
MIC (Staphylococcus aureus [1]): 32 µg/mL (≈ 108 µM)

CCCCCCN1C(=O)C(O)=C(c2ccc(C(F)(F)F)cc2)C1c1ccccc1 (racemic)
MIC (Staphylococcus aureus [1]): 32 µg/mL (≈ 79.3 µM)

COC1=C(c2ccc(C(F)(F)F)cc2)C2CCCCN2C1=O (stereo not drawn)
MIC (Staphylococcus aureus [1]): > 128 µg/mL

O=C1C(O)=C(c2ccccc2)C2CCCCN12 (stereo not drawn)
MIC (Staphylococcus aureus [1]): > 128 µg/mL

C=CCN1C(=O)C(O)=C(c2ccc(C(F)(F)F)cc2)C1CC (racemic)
MIC (Staphylococcus aureus [1]): 32 µg/mL (≈ 103 µM)

COc1ccc(C2=C(O)C(=O)N3CCCC23)cc1 (stereo not drawn)
MIC (Staphylococcus aureus [1]): > 128 µg/mL

CC(=O)NC[C@H]1CN(c2ccc(N3CCOCC3)c(F)c2)C(=O)O1 [LINEZOLID]
MIC (Staphylococcus aureus [2]): 1 µg/mL (≈ 2.96 µM)
MIC (Staphylococcus aureus [3]): 0.5 µg/mL (≈ 1.48 µM)
MIC (Staphylococcus aureus [4]): 1 µg/mL (≈ 2.96 µM)
MIC (Staphylococcus aureus [1]): 1 µg/mL (≈ 2.96 µM)
MIC (Staphylococcus aureus [5]): 0.5 µg/mL (≈ 1.48 µM)
MIC [6]: 0.25 µg/mL (≈ 0.741 µM)
MIC [7]: 0.25 µg/mL (≈ 0.741 µM)
MIC (Staphylococcus aureus [8]): 1 µg/mL (≈ 2.96 µM)

CCCCCC1=C(O)C(=O)N2CCCC12 (stereo not drawn)
MIC (Staphylococcus aureus [1]): > 128 µg/mL

O=C1C(O)=C(c2ccccc2)C2CCCN12 (stereo not drawn)
MIC (Bacillus cereus): 50 to 100 µg/mL (≈ 232 to 465 µM)
MIC (Staphylococcus aureus [1]): > 128 µg/mL

COc1ccc(C2=C(O)C(=O)N3CCCCC23)cc1 (stereo not drawn)
MIC (Staphylococcus aureus [1]): > 128 µg/mL

CCCCCCN1C(=O)C(O)=C(c2ccc(C(F)(F)F)cc2)C1CCCC (racemic)
MIC (Staphylococcus aureus [1]): 32 µg/mL (≈ 83.5 µM)

O=C1C(O)=C(c2ccc(Br)cc2)C2CCCN12 (stereo not drawn)
MIC (Staphylococcus aureus [1]): 128 µg/mL (≈ 435 µM)

CCC1C(c2ccc(C(F)(F)F)cc2)=C(O)C(=O)N1Cc1ccc(OC)cc1OC (racemic)
MIC (Staphylococcus aureus [1]): 32 µg/mL (≈ 75.9 µM)

O=C1C(O)=C(c2ccc(Cl)cc2)C2CCCCN12 (racemic)
MIC (Staphylococcus aureus [1]): > 128 µg/mL

O=C1C(O)=C(c2cccs2)C2CCCCN12 (stereo not drawn)
MIC (Staphylococcus aureus [1]): 16 µg/mL (≈ 68 µM)

CCC1C(c2ccc(C(F)(F)F)cc2)=C(O)C(=O)N1Cc1ccc(C(F)(F)F)cc1 (racemic)
MIC (Staphylococcus aureus [1]): 32 µg/mL (≈ 74.5 µM)

Cc1ccc(C2=C(O)C(=O)N3CCCC23)cc1 (racemic)
MIC (Staphylococcus aureus [1]): 128 µg/mL (≈ 558 µM)

CC1CCN2C(=O)C(O)=C(c3ccc(C(F)(F)F)cc3)C2C1 (racemic)
MIC (Staphylococcus aureus [1]): 128 µg/mL (≈ 411 µM)

CCC1C(c2ccc(C(F)(F)F)cc2)=C(O)C(=O)N1C (racemic)
MIC (Staphylococcus aureus [1]): 64 µg/mL (≈ 224 µM)

O=C1C(O)=C(c2ccc(F)cc2)C2CCCCN12 (racemic)
MIC (Staphylococcus aureus [1]): > 128 µg/mL

CCC1C(c2ccc(C(F)(F)F)cc2)=C(O)C(=O)N1Cc1ccccc1 (racemic)
MIC (Staphylococcus aureus [2]): 64 µg/mL (≈ 177 µM)
MIC (Staphylococcus aureus [3]): 16 µg/mL (≈ 44.3 µM)
MIC (Staphylococcus aureus [4]): 32 µg/mL (≈ 88.6 µM)
MIC (Staphylococcus aureus [1]): 8 µg/mL (≈ 22.1 µM)
MIC (Staphylococcus aureus [5]): 16 µg/mL (≈ 44.3 µM)
MIC (Staphylococcus aureus [9]): 8 µg/mL (≈ 22.1 µM)
MIC (Staphylococcus aureus [10]): 16 µg/mL (≈ 44.3 µM)
MIC [6]: 8 µg/mL (≈ 22.1 µM)
MIC (Staphylococcus aureus [11]): 32 µg/mL (≈ 88.6 µM)
MIC [7]: 8 µg/mL (≈ 22.1 µM)
MIC (Staphylococcus aureus [8]): 32 µg/mL (≈ 88.6 µM)

CCC1C(c2ccc(C(F)(F)F)cc2)=C(O)C(=O)N1C(C)c1ccccc1 (stereo not drawn)
MIC (Staphylococcus aureus [1]): 32 µg/mL (≈ 85.2 µM)

O=C1C(O)=C(c2ccc(C(F)(F)F)cc2)C2CCCCCN12 (racemic)
MIC (Staphylococcus aureus [1]): 32 µg/mL (≈ 103 µM)

O=C1C(O)=C(c2ccc(Br)cc2)C2CCCCN12 (stereo not drawn)
MIC (Staphylococcus aureus [1]): 32 µg/mL (≈ 104 µM)

CCC1C(c2ccc(C(F)(F)F)cc2)=C(O)C(=O)N1C1CCCCC1 (racemic)
MIC (Staphylococcus aureus [2]): 32 µg/mL (≈ 90.6 µM)
MIC (Staphylococcus aureus [3]): 8 µg/mL (≈ 22.6 µM)
MIC (Staphylococcus aureus [4]): 64 µg/mL (≈ 181 µM)
MIC (Staphylococcus aureus [1]): 8 µg/mL (≈ 22.6 µM)
MIC (Staphylococcus aureus [5]): 8 µg/mL (≈ 22.6 µM)
MIC (Staphylococcus aureus [9]): 2 µg/mL (≈ 5.66 µM)
MIC (Staphylococcus aureus [10]): 32 µg/mL (≈ 90.6 µM)
MIC [6]: 16 µg/mL (≈ 45.3 µM)
MIC (Staphylococcus aureus [11]): 32 µg/mL (≈ 90.6 µM)
MIC [7]: 2 µg/mL (≈ 5.66 µM)
MIC (Staphylococcus aureus [8]): 32 µg/mL (≈ 90.6 µM)

CCCCCCN1C(=O)C(O)=C(c2ccc(C(F)(F)F)cc2)C1CC (racemic)
MIC (Staphylococcus aureus [2]): 64 µg/mL (≈ 180 µM)
MIC (Staphylococcus aureus [3]): 32 µg/mL (≈ 90 µM)
MIC (Staphylococcus aureus [4]): 64 µg/mL (≈ 180 µM)
MIC (Staphylococcus aureus [1]): 2 µg/mL (≈ 5.63 µM)
MIC (Staphylococcus aureus [5]): 32 µg/mL (≈ 90 µM)
MIC (Staphylococcus aureus [9]): 4 µg/mL (≈ 11.3 µM)
MIC (Staphylococcus aureus [10]): 32 µg/mL (≈ 90 µM)
MIC [6]: 4 µg/mL (≈ 11.3 µM)
MIC (Staphylococcus aureus [11]): 64 µg/mL (≈ 180 µM)
MIC [7]: 8 µg/mL (≈ 22.5 µM)
MIC (Staphylococcus aureus [8]): 64 µg/mL (≈ 180 µM)

CC[C@H]1OC(=O)[C@H](C)[C@@H](O[C@H]2C[C@@](C)(OC)[C@@H](O)[C@H](C)O2)[C@H](C)[C@@H](O[C@@H]2O[C@H](C)C[C@H](N(C)C)[C@H]2O)[C@](C)(O)C[C@@H](C)C(=O)[C@H](C)[C@@H](O)[C@]1(C)O [ERYTHROMYCIN]
MIC (Staphylococcus aureus [10]): 0.5 µg/mL (≈ 0.681 µM)
MIC (Staphylococcus aureus [11]): 0.5 µg/mL (≈ 0.681 µM)

O=C1C(O)=C(c2cccs2)C2CCCN12 (stereo not drawn)
MIC (Staphylococcus aureus [1]): > 128 µg/mL

O=C1C(O)=C(c2ccc(C(F)(F)F)cc2)C2CCCN12 (stereo not drawn)
MIC (Staphylococcus aureus [1]): 128 µg/mL (≈ 452 µM)

CCCCCCN1C(=O)C(O)=C(c2ccc(C(F)(F)F)cc2)C1CCc1ccccc1 (racemic)
MIC (Staphylococcus aureus [1]): 64 µg/mL (≈ 148 µM)

CCC1C(c2ccc(C(F)(F)F)cc2)=C(O)C(=O)N1Cc1ccc(-c2ccccc2)cc1 (racemic)
MIC (Staphylococcus aureus [1]): 64 µg/mL (≈ 146 µM)

CCC1C(c2ccc(C(F)(F)F)cc2)=C(O)C(=O)N1c1ccccc1 (racemic)
MIC (Staphylococcus aureus [2]): 32 µg/mL (≈ 92.1 µM)
MIC (Staphylococcus aureus [3]): 8 µg/mL (≈ 23 µM)
MIC (Staphylococcus aureus [4]): 64 µg/mL (≈ 184 µM)
MIC (Staphylococcus aureus [1]): 8 µg/mL (≈ 23 µM)
MIC (Staphylococcus aureus [5]): 8 µg/mL (≈ 23 µM)
MIC (Staphylococcus aureus [9]): 8 µg/mL (≈ 23 µM)
MIC (Staphylococcus aureus [10]): 8 µg/mL (≈ 23 µM)
MIC [6]: 8 µg/mL (≈ 23 µM)
MIC (Staphylococcus aureus [11]): 16 µg/mL (≈ 46.1 µM)
MIC [7]: 4 µg/mL (≈ 11.5 µM)
MIC (Staphylococcus aureus [8]): 32 µg/mL (≈ 92.1 µM)

CCC1C(c2ccc(C(F)(F)F)cc2)=C(O)C(=O)N1CCCCO (racemic)
MIC (Staphylococcus aureus [1]): > 128 µg/mL

— ChEMBL document CHEMBL4229341, “3-Hydroxy-1,5-dihydro-2H-pyrrol-2-ones as novel antibacterial scaffolds against methicillin-resistant Staphylococcus aureus” (2018)
